Two substances from patent US20120083522A1, “MODULATION OF INFLAMMATORY RESPONSES BY FACTOR XI” (Isis Pharmaceuitcals, inc., priority 2009, published 2012) can be followed below.

One series relates to Factor XI protein. In words: Cynomolgus monkeys: plasma Factor XI protein ELISA (Example 29). It counts as in vivo. The protocol:
Groups, each consisting of two male and three female monkeys, were injected subcutaneously with ISIS 416838, ISIS 416850, ISIS 416858, ISIS 416864, or ISIS 417002 in escalating doses. Antisense oligonucleotide was administered to the monkeys at 5 mg/kg three times per a week for week 1; 5 mg/kg twice per week for weeks 2 and 3; 10 mg/kg three times per week for week 4; 10 mg/kg twice per week for weeks 5 and 6; 25 mg/kg three times per week for week 7; and 25 mg/kg twice per week for weeks 8, 9, 10, 11, and 12. One control group, consisting of two male and three female monkeys, was injected subcutaneously with PBS according to the same dosing regimen. An additional experimental group, consisting of two male and three female monkeys, was injected subcutaneously with ISIS 416850 in a chronic, lower dose regimen. Antisense oligonucleotide was administered to the monkeys at 5 mg/kg three times per week for week 1; 5 mg/kg twice per week for week 2 and 3; 10 mg/kg three times per week for week 4; and 10 mg/kg twice per week for weeks 5 to 12. Body weights were measured weekly. Blood samples were collected 14 days and 5 days before the start of treatment and subsequently once per week for Factor XI protein activity analysis in plasma and measurement of various hematologic factors. On day 85, the monkeys were euthanized by exsanguination while under deep anesthesia, and organs harvested for further analysis.
Plasma samples from all monkey groups taken on different days were analyzed by a sandwich-style ELISA assay (Affinity Biologicals Inc.) using an affinity-purified polyclonal anti-Factor XI antibody as the capture antibody and a peroxidase-conjugated polyclonal anti-Factor XI antibody as the detecting antibody. Monkey plasma was diluted 1:50 for the assay. Peroxidase activity was expressed by incubation with the substrate o-phenylenediamine. The color produced was quantified using a microplate reader at 490 nm and was considered to be proportional to the concentration of Factor XI in the samples.
The results are presented in Table 122, expressed as percentage reduction relative to that of the PBS control.
For orientation: In an ELISA, binding on a coated surface is turned into a signal by an enzyme label.

Series [1] has as its system DSS-induced colitis model. Put plainly: Colitis Study B: body weight and colon length. Format: in vivo, Swiss Webb mice. The protocol:
In a first group of 8 Swiss Webb mice, 20 mg/kg of ISIS 404071 was injected subcutaneously twice a week for 3 weeks. In a second group of 8 Swiss Webb mice, 20 mg/kg of ISIS 404057 was subcutaneously injected twice a week for 3 weeks. In a third control group of 8 Swiss Webb mice, 20 mg/kg of ISISI 421208 was injected subcutaneously twice a week for 3 weeks. Two control groups of 8 mice each were injected with PBS twice a week for 3 weeks. After the oligonucleotide treatment, 4% DSS in water was administered ad libitum for 6 days to all the experimental groups and one PBS control group.
Mice in all groups were weighed at day 0 and daily after administration of DSS. Mice were sacrificed at the end of the study on day 7 after DSS was administered, their livers and colons were harvested for RNA analysis, and their body weights and colon lengths were measured.

For series [2], the system named is collagen-induced arthritis (CIA) model. Put plainly: Arthritis Study A: collagen-induced arthritis (Example 11). The settings on record: for incidence of CIA (in words): 20 mg/kg. It counts as in vivo, DBA/1J mice. The protocol:
The effect of inhibition of Factor XI and its role in fibrin accumulation in the joints leading to joint inflammation and rheumatoid arthritis was evaluated in a murine collagen-induced arthritis (CIA) model. […] Arthritis induced in mice administered collagen can be visually assessed and clinically scored as described by Marty et al. (J Clin Invest, 107:631-640, 2001) where 1 point is given for each swollen digit except the thumb (maximum, 4), 1 point is given for the tarsal or carpal joint, and 1 point is given for the metatarsal or metacarpal joint with a maximum score of […]. Each paw was graded individually, the cumulative clinical arthritic score per mouse reaching a maximum of 22 points
In a group of 15 DBA/1J mice, 20 mg/kg of ISIS 404071 was injected subcutaneously twice a week for 12 weeks. One control group of 15 mice was injected with 20 mg/kg of ISIS 403102 twice a week for 12 weeks. Two control groups of 15 mice each were injected with PBS twice a week for 12 weeks. Two weeks after the first oligonucleotide dose, type II bovine collagen (Chondrex Inc, Redmond, Wash.) was mixed with complete Freund's adjuvant, homogenized on ice and the emulsion, containing 100 μg of collagen, was injected subcutaneously at the base of the tail in the Factor XI group, the Factor VII group and one of the PBS control groups. A booster injection containing 100 μg collagen type II in incomplete Freund's adjuvant was injected subcutaneously at the base of the tail at a different injection site on day 21 after the first collagen injection in these groups.
Starting 35 days from the first collagen injection, mice in all groups were examined daily for the visual appearance of arthritis, such as swelling and stiffness, in peripheral joints. The results are presented in Table 20 (expressed as a percentage of the PBS control) and in FIGS. 1-3.
‘Incidence of CIA’ refers to the percentage of mice in each group that had CIA at day 40. The ‘percentage of paws affected’ refers to the percentage of paws out of a total of 60 paws in each group of mice that were affected with arthritis. ‘Average number of affected paws’ refers to the number of affected paws in mice that were diagnosed to have arthritis. The ‘clinical severity of CIA’ was scored as described by Marty et al. (J Clin Invest, 107:631-640, 2001) and as follows: 1 point for each swollen digit except the thumb (maximum, 4), 1 point for the tarsal or carpal joint, and 1 point for the metatarsal or metacarpal joint with a maximum score of 6 for a hindpaw and 5 for a forepaw. Each paw was graded individually, the cumulative clinical arthritic score per mouse reaching a maximum of 22 points.

Setting [3] is: DSS-induced colitis, day 7, 20 mg/kg s.c. twice a week for 3 weeks, percent change compared to the PBS control.

Entries after “also recorded” stand apart in the source; their conditions may differ. In the oligonucleotide strings, read from the 5' end, every base follows the letter of its sugar. An asterisk marks phosphorothioate; unmarked linkages are phosphodiester. Other units and linkages are bracketed, terminal groups are in braces. A string of capitals states the bases alone. e = 2'-O-(2-methoxyethyl) (MOE); [5mC] = 5-methylcytosine; d = 2'-deoxy (DNA)

For the substance “ISIS 416850: gapmer of Table 8 (antisense eT*eG*e[5mC]*eA*e[5mC]*dA*dG*dT*dT*dT*d[5mC]*dT*dG*dG*d[5mC]*eA*eG*eG*e[5mC]*e[5mC])”, in the series with Factor XI protein (Example 29), the “Factor XI protein levels (in words)” value is “time-dependent decrease in protein levels”. Further, the “Inhibition of Factor XI protein relative to the PBS control” value in the series with Factor XI protein (chronic, lower dose regimen (*) 5 then 10 mg/kg s.c., day 8) is 6%; with Factor XI protein (chronic, lower dose regimen (*) 5 then 10 mg/kg s.c., day 15), 13%; in the series with Factor XI protein (chronic, lower dose regimen (*) 5 then 10 mg/kg s.c., day 22) it was 12%; with Factor XI protein (chronic, lower dose regimen (*) 5 then 10 mg/kg s.c., day 29), 20%; with Factor XI protein (chronic, lower dose regimen (*) 5 then 10 mg/kg s.c., day 36) it was 22%; with Factor XI protein (chronic, lower dose regimen (*) 5 then 10 mg/kg s.c., day 43), 24%. Further, the “Inhibition of Factor XI protein relative to the PBS control” value was 30% in the series on Factor XI protein (chronic, lower dose regimen (*) 5 then 10 mg/kg s.c., day 50); 34% in the series on Factor XI protein (chronic, lower dose regimen (*) 5 then 10 mg/kg s.c., day 57); 37% in the series on Factor XI protein (chronic, lower dose regimen (*) 5 then 10 mg/kg s.c., day 64); 41% in the series with Factor XI protein (chronic, lower dose regimen (*) 5 then 10 mg/kg s.c., day 71); 42% with Factor XI protein (chronic, lower dose regimen (*) 5 then 10 mg/kg s.c., day 78); 34% in the series with Factor XI protein (chronic, lower dose regimen (*) 5 then 10 mg/kg s.c., day 85). For the same substance, the “Inhibition of Factor XI protein relative to the PBS control” value is reported as 1% in the series with Factor XI protein (chronic, lower dose regimen (*) 5 then 10 mg/kg s.c., day −5 (before treatment)); 0% in the series with Factor XI protein (chronic, lower dose regimen (*) 5 then 10 mg/kg s.c., day −14 (before treatment)); 8% in the series on Factor XI protein (escalating doses 5, 10, 25 mg/kg s.c., day 8); 4% in the series with Factor XI protein (escalating doses 5, 10, 25 mg/kg s.c., day 15); 11% in the series on Factor XI protein (escalating doses 5, 10, 25 mg/kg s.c., day 22); 15% with Factor XI protein (escalating doses 5, 10, 25 mg/kg s.c., day 29). Moreover, the “Inhibition of Factor XI protein relative to the PBS control” value turned out to be 17% with Factor XI protein (escalating doses 5, 10, 25 mg/kg s.c., day 36); 23% with Factor XI protein (escalating doses 5, 10, 25 mg/kg s.c., day 43); 42% in the series with Factor XI protein (escalating doses 5, 10, 25 mg/kg s.c., day 50); 49% with Factor XI protein (escalating doses 5, 10, 25 mg/kg s.c., day 57); 55% with Factor XI protein (escalating doses 5, 10, 25 mg/kg s.c., day 64); 57% in the series on Factor XI protein (escalating doses 5, 10, 25 mg/kg s.c., day 71). Besides, the “Inhibition of Factor XI protein relative to the PBS control” value in the series on Factor XI protein (escalating doses 5, 10, 25 mg/kg s.c., day 78) is recorded as 63%; in the series on Factor XI protein (escalating doses 5, 10, 25 mg/kg s.c., day 85) it was 64%; in the series with Factor XI protein (escalating doses 5, 10, 25 mg/kg s.c., day −5 (before treatment)), 0%; in the series on Factor XI protein (escalating doses 5, 10, 25 mg/kg s.c., day −14 (before treatment)), 0%.

Turning to “TGGTAATCCACTTTCAGAGG (eT*eG*eG*eT*eA*dA*dT*d[5mC]*d[5mC]*dA*d[5mC]*dT*dT*dT*d[5mC]*eA*eG*eA*eG*eG) [ISIS 404071, 5-10-5 MOE gapmer targeting murine Factor XI, target start site 869]”, the “body weight (in words)” value in series [1] (Colitis Study B, FIG. 9) was “did not have any significant change in body weight”. Further, in series [1] (setting [3]), the Body weight is −10% and the Colon length is −11%. Further, the “incidence of CIA (in words)” value in series [2] (Arthritis Study A) was “significantly inhibit the incidence of CIA”. Also, the “incidence of CIA (in words)” value in series [2] (Arthritis Study A, listed as Factor XI ASO) is on record as “lower incidence of CIA”. Moreover, in series [2] (Arthritis Study A, FIG. 1B and 2A, listed as Factor XI ASO), the “affected paws (in words)” value was “lower incidence of affected paws; also recorded: fewer affected paws on average”. Besides, the “arthritis severity (in words)” value in series [2] (Arthritis Study A, FIG. 2B) was “less severe arthritis than the control mice”. Further, in series [2] (Arthritis Study A, FIG. 3), the “timeline of CIA incidence (in words)” value is “developed CIA at a later stage with fewer affected mice”. The “Average no. of paws affected” value in series [2] (DBA/1J mice, 20 mg/kg s.c. twice a week for 12 weeks, in mice diagnosed with arthritis) amounted to 1. Besides, in series [2] (DBA/1J mice, 20 mg/kg s.c. twice a week for 12 weeks, out of 60 paws per group), the “% of paws affected” value is reported as 3%. The “% of CIA” value in series [2] (DBA/1J mice, 20 mg/kg s.c. twice a week for 12 weeks, percentage of mice in group with CIA at day 40) stood at 13%. Moreover, the “Clinical severity of CIA” value in series [2] (DBA/1J mice, 20 mg/kg s.c. twice a week for 12 weeks, score of Marty et al., maximum 22 points) was determined as 1.
